Measured values reported in patent US20250177329A1, “GPR120 AGONISTS FOR THE TREATMENT OF INFLAMMATORY BOWEL DISEASE” (Dompe' Farmaceutici SPA, priority 2022, published 2025).

Experiments:
[1] = Plasma pharmacokinetics after single oral administration to mice; assay type: in vivo; conditions: male, CD1, mouse, single oral dose (Dose_PO: 10.0-90.0 mg/kg)
Description: The purpose of this study was to evaluate plasma and tissue exposure of the following compounds after a single oral administration to mice: • 7-(3-(N-(4-fluoro-2,6-dimethylphenyl)sulfamoyl)phenyl)heptanoic acid (indicated below as DFL23806), • 7-(3-(N-(4-chloro-2,6-dimethylphenyl)sulfamoyl)phenyl)heptanoic acid (indicated below as DFL23914) • 7-(3-(N-(2,6-dimethyl-4-(trifluoromethyl)phenyl)sulfamoyl)phenyl)heptanoic acid (indicated below as DFL23922) • 7-(3-(N-(6-fluoro-4-methyl-[1,1′-biphenyl]-3-yl)sulfamoyl)phenyl)heptanoic acid (indicated below as DFL23916) • 7-(3-(N-(5-fluoro-3-methyl-[1,1′-biphenyl]-2-yl)sulfamoyl)phenyl)heptanoic acid (indicated below as DFL23917) • 7-(3-{[4-fluoro-2-methyl-5-(thiophen-2-yl)phenyl]sulfamoyl}phenyl)heptanoic acid (indicated below as DFL24102) […]
A retro-orbital, composite blood sampling at pre-dose or after dosing at 30 min, 1, 2, 6, 8 and 24 hours (three mice/time point) was carried out for the plasma pharmacokinetic assessment. Blood samples were collected in heparinized collection tubes. Samples were taken immediately onto ice and kept cool until centrifugation (10000 g for 3 minutes at about +4° C.). About 50 μL of plasma were stored in a freezer at −80° C. pending analysis.
After samples collection, bioanalysis for concentrations of the test compounds were done using HPLC-MS/MS methods and pharmacokinetic analysis of the compounds in plasma and tissues was performed according to standard non-compartmental approach using Watson system (v 7.6, Thermo Fisher Scientific Waltham, MA, USA) on mean concentration data.

DSS-induced colitis = assay: Mouse model of Dextran Sodium Sulfate-induced colitis; assay type: in vivo, female C57/B16 mice; conditions: day 39
Description: A mouse model of colitis induced by administration of Dextran Sodium Sulfate (DSS) (Wirtz S. et al. Nature Protocols; Volume: 2, Issue: 3 Pages: 541-546; 2007) was used to study the therapeutic effect of oral administration of DFL23806 on colitis.
In details, 8- to 12-week-old female C57/B16 mice were subjected to 3 oral cycles of 2.5% Dextran Sodium Sulfate (DSS) in drinking water (molecular mass, 40 kDa; MP Biomedicals), each cycle characterized by 7 days of DSS administration followed by 7 days of filter-purified water.
From day 3 of DSS administration, the mice were divided in 4 experimental groups, each receiving the treatment specified below: • Group 1: DSS (n=8)
No treatment, used as negative control. • Group 2: DSS+Vehicle (n=8)
Treated with 20% v/v Dimethyl Sulfoxide (DMSO) and 80% v/v Phosphate Buffered Saline (PBS), 0.1 M, pH 8 (Vehicle), used as a negative control. • Group 3: DSS+DFL 90 mg/kg (n=8)
Treated with DFL23806 dissolved in Vehicle, at the dosage of 90 mg/kg once a day. • Group 4: DSS+5-ASA 60 mg/kg (n=8)
Treated with 5-aminosalicylic acid (5-ASA) in Vehicle, at the dosage of 60 mg/Kg once a day, used as reference positive control.
Vehicle, DFL23806 and 5-ASA were administered daily, in the morning, by oral gavage, using plastic sterile feeding tubes 20 ga×30 mm. All mice were sacrificed on day 39.
A DAI score was established based on a scale that considers different parameters characterizing experimental colitis induction and progression (R S Walmsley et al. Gut 1998; 43:29-32).
Body weight, presence of gross blood in the feces, and stool consistency were recorded every 2 days. In details, the DAI was determined at each time point by scoring changes in weight loss (0=none, 1=1%-5%, 2=5%-10%, 3=10%-20%, 4=>20%); stool consistency (0=normal, 2=loose, 4=diarrhea); and rectal bleeding (0=normal, 2=occult bleeding, 4=gross bleeding).
Mice were sacrificed at day 39, colon were collected and colon lengths measured for each mouse, as additional parameter of intestinal inflammation.
The day of sacrifice (day 39), mice were anesthetized with 2% isoflurane and subjected to endoscopy, to confirm the inflammatory grade. The experimental endoscopy setup, denoted “Coloview system”, consisted of a miniature endoscope (scope 1.9 mm outer diameter), a xenon light source, a triple chip camera, and an air pump (all from Karl Storz, Tuttlingen, Germany) to achieve regulated inflation of the mouse colon. The endoscopic procedure was viewed on a colour monitor and a modified murine endoscopic index score of colitis severity was assigned on the basis of colon translucency (0-3 points), granular features of the mucosa (0-3 points), morphology of the vascular pattern (0-4 points), and the presence of fibrin (0-4 points), as previously described by Dr. D'Alessio (D'Alessio, S. et al. J. Clin. Invest. 124, 3863-3878; 2014) leading to a cumulative score between 0 (no signs of inflammation) and […] (endoscopic signs of very severe inflammation).
Histological analysis has been performed by an expert pathologist, in a blinded fashion, to grade the intestinal inflammation. More in details, colons of colitic mice in the various experimental groups have been evaluated for histological analyses using […] paraffin-embedded sections, stained with hematoxylin (Dako) and eosin (Diapath). A blinded pathologist evaluated the degree of inflammatory cell infiltration and mucosal damage, using the RACHMILEWITZ score (Table 1) (Rachmilewitz, D. et al. Gastroenterology 122, 1428-1441; 2002).

GPR40 = biological target: T1, GPR40 (Mus musculus, UniProt Q76JU9); assay: Co-immunoprecipitation of β-arrestin 2 with GPR40 in colon lysates of DSS mice; assay type: in vivo; conditions: pooled colon lysates, day 39; compared to DSS or DSS+vehicle
T1 construct: Colon lysates (˜900 μg proteins) from 6 mice of each experimental group were pooled; from tissue; host or cells: mouse colon (DSS colitis model)
T1 sequence (Q76JU9 whole entry): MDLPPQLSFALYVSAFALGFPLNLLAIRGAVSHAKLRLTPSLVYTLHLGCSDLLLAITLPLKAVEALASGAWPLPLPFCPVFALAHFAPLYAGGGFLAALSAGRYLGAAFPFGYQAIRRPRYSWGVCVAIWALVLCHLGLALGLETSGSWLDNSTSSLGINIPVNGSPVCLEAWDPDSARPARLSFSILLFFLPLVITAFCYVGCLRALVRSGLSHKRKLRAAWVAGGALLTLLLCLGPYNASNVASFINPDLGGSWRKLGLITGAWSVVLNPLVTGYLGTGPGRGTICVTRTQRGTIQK
Protocol: The efficiency of DFL in activating the GPR120 and/or GPR40 receptors was tested.
Agonist-induced GPR120 can engage multiple signalling pathways to regulate distinct physiological outcomes. After ligand binding, B-arrestins, such as B-arrestin 2 can associate with the cytoplasmic domains of GPR120 and couple the receptor to specific downstream signaling pathways (FIG. 9). For this reason, we verified the agonist efficiency in activating GPR120 and GPR40 by immunoprecipitation. Colon lysates (˜900 μg proteins) from 6 mice of each experimental group were pooled, precleared with protein A/G plus-agarose (Santa Cruz) and then incubated with the antibody used for immunoprecipitation (anti-GPR120 or anti-GPR40, Abcam) at 4° C. for 16 h, followed by incubation with protein A/G plus-agarose for 5 h. The agarose beads were then collected by centrifugation, washed four times with lysis buffer, and heated to 95° C. for 5 min after adding Laemmli buffer. The resulting immunoprecipitates were separated by SDS-PAGE and probed with the anti-β-arrestin 2 antibody (Santa Cruz).
Upon western blotting, a densitometric analysis of the blots was performed using Image J. FIGS. 10 and 11 show the ratio between co-immunoprecipitated β-arrestin 2 and GPR120 (FIG. 10) or GPR40 levels (FIG. 11) and the results of the blotting.

[2] = colon, DFL 90 mg/kg, 5-ASA 60 mg/kg, compared with DSS+Vehicle
[3] = DFL23806 90 mg/kg, 5-ASA 60 mg/kg oral once a day, compared to DSS and DSS+Vehicle

Row | AUC(0-inf) [1] | AUC(0-t) [1] | Cmax [1] | Tmax [1] | half-life [1] | GPR40 and β-arrestin 2 association (ratio co-immunoprecipitated β-arrestin 2 / GPR40) (GPR40) | Compound | histological score (Rachmilewitz) for extent of flogosis (DSS-induced colitis; [2]) | histological score (Rachmilewitz) for extent of ulceration (DSS-induced colitis; [2]) | histological score (Rachmilewitz) for flogosis (DSS-induced colitis; [2]) | histological score (Rachmilewitz) for ulceration (DSS-induced colitis; [2]) | composite endoscopic score (DSS-induced colitis; [3]) | endoscopic score: colon thickness (DSS-induced colitis; [3]) | endoscopic score: mucosal surface granularity (DSS-induced colitis; [3]) | endoscopic score: vascular pattern (DSS-induced colitis; [3]) | endoscopic score: visible fibrin (DSS-induced colitis; [3]) | colon length (DSS-induced colitis; DFL23806 90 mg/kg, 5-ASA 60 mg/kg oral once a day, compared to DSS+vehicle)
1 | 230 ng·h/mL | 189 ng·h/mL | 45 ng/mL | 2 h | 1.2 h | – | Cc1cc(Cl)cc(C)c1NS(=O)(=O)c1cccc(CCCCCCC(=O)O)c1 [DFL23914, 7-(3-(N-(4-chloro-2,6-dimethylphenyl)sulfamoyl)phenyl)heptanoic acid] | – | – | – | – | – | – | – | – | – | –
2 | 217 ng·h/mL | 201 ng·h/mL | 123 ng/mL | 1.4 h | 1.5 h | – | Cc1cc(C(F)(F)F)cc(C)c1NS(=O)(=O)c1cccc(CCCCCCC(=O)O)c1 [DFL23922, 7-(3-(N-(2,6-dimethyl-4-(trifluoromethyl)phenyl)sulfamoyl)phenyl)heptanoic acid] | – | – | – | – | – | – | – | – | – | –

The remaining lines, values behind:

Row | Compound | AUC(0-inf) [1] | AUC(0-t) [1] | Cmax [1] | Tmax [1] | half-life [1] | GPR40 and β-arrestin 2 association (ratio co-immunoprecipitated β-arrestin 2 / GPR40) (GPR40) | histological score (Rachmilewitz) for extent of flogosis (DSS-induced colitis; [2]) | histological score (Rachmilewitz) for extent of ulceration (DSS-induced colitis; [2]) | histological score (Rachmilewitz) for flogosis (DSS-induced colitis; [2]) | histological score (Rachmilewitz) for ulceration (DSS-induced colitis; [2]) | composite endoscopic score (DSS-induced colitis; [3]) | endoscopic score: colon thickness (DSS-induced colitis; [3]) | endoscopic score: mucosal surface granularity (DSS-induced colitis; [3]) | endoscopic score: vascular pattern (DSS-induced colitis; [3]) | endoscopic score: visible fibrin (DSS-induced colitis; [3]) | colon length (DSS-induced colitis; DFL23806 90 mg/kg, 5-ASA 60 mg/kg oral once a day, compared to DSS+vehicle)
3 | Cc1cc(F)c(-c2cccs2)cc1NS(=O)(=O)c1cccc(CCCCCCC(=O)O)c1 [DFL24102, 7-(3-{[4-fluoro-2-methyl-5-(thiophen-2-yl)phenyl]sulfamoyl}phenyl)heptanoic acid] | 302 ng·h/mL | 278 ng·h/mL | 113 ng/mL | 1 h | 1.9 h | – | – | – | – | – | – | – | – | – | – | –
4 | Cc1cc(F)cc(-c2ccccc2)c1NS(=O)(=O)c1cccc(CCCCCCC(=O)O)c1 [DFL23917, 7-(3-(N-(5-fluoro-3-methyl-[1,1′-biphenyl]-2-yl)sulfamoyl)phenyl)heptanoic acid] | 402 ng·h/mL | 378 ng·h/mL | 135 ng/mL | 0.5 h | 1.3 h | – | – | – | – | – | – | – | – | – | – | –
5 | Cc1cc(F)c(-c2ccccc2)cc1NS(=O)(=O)c1cccc(CCCCCCC(=O)O)c1 [DFL23916, 7-(3-(N-(6-fluoro-4-methyl-[1,1′-biphenyl]-3-yl)sulfamoyl)phenyl)heptanoic acid] | 571 ng·h/mL | 480 ng·h/mL | 198 ng/mL | 0.4 h | 2.2 h | – | – | – | – | – | – | – | – | – | – | –
6 | Nc1ccc(O)c(C(=O)O)c1 [5-ASA, 5-aminosalicylic acid, reference compound] | – | – | – | – | – | no increase | significantly reduced the histological score | significantly reduced the histological score | significantly reduced the histological score | significantly reduced the histological score | significantly inhibit chronic experimental colitis | significantly inhibit chronic experimental colitis | significantly inhibit chronic experimental colitis | significantly inhibit chronic experimental colitis | significantly inhibit chronic experimental colitis | significant inhibitory effect
